Experiments:
[1] = system: CYP24 gene expression in BT474 cell line; experiment: RT-PCR of CYP24 gene expression in the BT474 cell line with induction by 1,25-dihydroxyvitamin D3; type: cell-based, human; conditions: BT474 cells, 10^-8M 1,25-dihydroxyvitamin D3 added to the culture medium; FIG. 3C
Procedure: (§1) FIG. 3 illustrates expression of CYP24, VDR and ZNF217 genes in human breast cancer cell lines and tumors with and without induction by 1,25-dihydroxyvitamin D3 evaluated by RT-PCR. (a) Time course of induction of CYP24 gene expression in MCF7 breast cancer cells incubated with 10^−8M 1,25-dihydroxyvitamin D3 and vehicle control (ethanol, EtOH). (b) Gene expression in two breast cancer tumors, S21 and S59. (c) Gene expression in the BT474 cell line. Cells were incubated with 10^−8M 1,25-dihydroxyvitamin D3, as described in (a).
(§2) Previously, CYP24 had been discounted as a candidate oncogene because it was not found to be transcribed in the breast cancer cell line, BT474 (Collins et al. (1998) Proc. Natl. Acad. Sci. USA 95: 8703-8708). However, re-evaluation of expression of CYP24 in cell lines and tumors was warranted because of its position at the peak of the copy number profile and because of the existing knowledge of its function. Therefore we examined expression levels of CYP24 and the vitamin D receptor (VDR), which controls CYP24 expression by RT-PCR using the primers listed in Table 1. […] Furthermore, expression of CYP24 and VDR was detected in two breast tumors S21 and S59 (FIG. 3B). […] Only low level expression of VDR was found in this cell line, most likely accounting for the failure to detect expression of CYP24 in BT474 without addition of 1,25-dihydroxyvitamin-D3. […]

[2] = system: CYP24 gene expression in MCF7 breast cancer cells; experiment: RT-PCR of CYP24 gene expression in MCF7 breast cancer cells with induction by 1,25-dihydroxyvitamin D3; type: cell-based, human; conditions: MCF7 cells incubated with 10^-8M 1,25-dihydroxyvitamin D3 vs vehicle control (ethanol); FIG. 3A
Procedure: as §1, §2

With `C=C1/C(=C\C=C2/CCC[C@]3(C)[C@@H]([C@H](C)CCCC(C)(C)O)CC[C@@H]23)C[C@@H](O)C[C@@H]1O` [1,25-dihydroxyvitamin-D3] the “expression of CYP24 (RT-PCR)” value [1] was “CYP24 expression was not detected without addition of 1,25-dihydroxyvitamin-D3” and the “expression of CYP24 (RT-PCR)” value [2] was “higher levels of expression of CYP24 were induced”.

From patent publication US8685929B2, “Detecting CYP24 expression level as a marker for predisposition to cancer” (The Regents of the University of California, priority 1999, dated 2014)
